In patent publication US8835469B2 (Cadila Healthcare Limited, priority 2009, dated 2014):

Columns and labels:
glucokinase (GK) enzyme = target: T1, glucokinase (GK) enzyme (Homo sapiens, UniProt P35557); assay: In-vitro glucokinase (GK) activation assay (coupled with glucose-6-phosphate dehydrogenase, absorbance at 340); assay type: biochemical; conditions: glucose 2.5 mM; for activity at 0.1 µM / activity at 1 µM / activity at 5 µM / activity at 10 µM: read-out: % of GK activity wrt DMSO; for EC50: GK enzyme 0.2 units, ATP 1 mM
T1 sequence (P35557 1-465): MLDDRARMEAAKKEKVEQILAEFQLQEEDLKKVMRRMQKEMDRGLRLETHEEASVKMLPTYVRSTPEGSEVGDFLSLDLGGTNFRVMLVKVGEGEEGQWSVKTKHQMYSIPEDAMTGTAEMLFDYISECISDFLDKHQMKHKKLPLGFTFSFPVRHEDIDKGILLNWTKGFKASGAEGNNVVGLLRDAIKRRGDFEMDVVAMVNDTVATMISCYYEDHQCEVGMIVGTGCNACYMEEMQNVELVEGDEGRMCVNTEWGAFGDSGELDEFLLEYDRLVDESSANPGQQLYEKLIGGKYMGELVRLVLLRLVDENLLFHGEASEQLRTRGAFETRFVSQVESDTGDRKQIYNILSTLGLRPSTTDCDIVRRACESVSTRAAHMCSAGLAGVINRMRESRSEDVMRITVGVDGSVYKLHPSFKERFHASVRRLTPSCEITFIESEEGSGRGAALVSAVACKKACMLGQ
Protocol: The compound of the invention was incubated with glucokinase (GK) enzyme (0.2 units) for 10 minutes in assay buffer at 26° C. After incubation, addition of glucose-6-phosphate dehydrogenase (2.5 units), ATP (1 mM) and glucose (2.5 mM). Absorbance is measured at 340 nm for 15 minutes with 10 second interval using UV transparent plate in kinetic mode on Spectramax-190 at 30° C.

Male C57 mice = assay: Oral glucose tolerance test (OGTT), overnight fasted; assay type: in vivo; conditions: for % change in glucose levels Vs Control: treated at −30 min, oral glucose load 3 g/kg at 0 min; for % change in glucose levels Vs Control, Mean: Mean over the time points, oral glucose load 3 g/kg
Protocol: Effect of Glucokinase Activators (GKAs) of the Present Invention on Glucose Reduction Determined by Oral Glucose Tolerence Test (OGTT):
Male C57 mice, aged 8-10 weeks were fasted overnight and subjected to the treatment of selected GK activator at time denoted as −30 min. At time 0 min, mice were given oral glucose load of 3 g/kg, and the glucose excursion was observed upto 120 min. The percentage change against the change in glucose levels of control are mentioned in the table 2.

Row | activity at 0.1 µM (glucokinase (GK) enzyme; 0.1 uM compound) [%] | activity at 1 µM (glucokinase (GK) enzyme; 1 uM compound) [%] | activity at 5 µM (glucokinase (GK) enzyme; 5 uM compound) [%] | activity at 10 µM (glucokinase (GK) enzyme; 10 uM compound) [%] | EC50 (glucokinase (GK) enzyme) [nM] | % of GK activity wrt DMSO (glucokinase (GK) enzyme; 0.1 uM compound) [%] | % of GK activity wrt DMSO (glucokinase (GK) enzyme; 1 uM compound) [%] | % of GK activity wrt DMSO (glucokinase (GK) enzyme; 5 uM compound) [%] | % of GK activity wrt DMSO (glucokinase (GK) enzyme; 10 uM compound) [%] | SMILES | % change in glucose levels Vs Control (Male C57 mice; 0 min Vs −30 min) [%] | % change in glucose levels Vs Control (Male C57 mice; 30 min Vs −30 min) [%] | % change in glucose levels Vs Control (Male C57 mice; 60 min Vs −30 min) [%] | % change in glucose levels Vs Control (Male C57 mice; 120 min Vs −30 min) [%] | % change in glucose levels Vs Control, Mean (Male C57 mice) [%]
1 | 112 | 141 | 230 | 261 | 356 | – | – | – | – | Cc1nnc(-c2ccc(Oc3cc(O[C@@H]4CCN(C)C4=O)cc(C(=O)Nc4nccs4)c3)cc2)o1 [Example 77, (R)-3-(4-(5-methyl-1,3,4-oxadiazol-2-yl)phenoxy)-5-((1-methyl-2-oxopyrrolidin-3-yl)oxy)-N-(thiazol-2-yl)benzamide] | −4.8 ± 7.5 | −15.1 ± 6.6 | −13.9 ± 7.3 | −22.0 ± 3.3 | −11.2
2 | 148 | 273 | 330 | 322 | 320 | – | – | – | – | Cc1nnc(-c2ccc(Oc3cc(OC4CCN(C)C4=O)cc(C(=O)Nc4nc(CC(=O)O)cs4)c3)cc2)o1 (stereo not shown) [Example 4, 2-(2-(3-(4-(5-Methyl-1,3,4-oxadiazol-2-yl)phenoxy)-5-((1-methyl-2-oxopyrrolidin-3-yl)oxy)benzamido)thiazol-4-yl)acetic acid] | −23.3 ± 3.1 | −22.1 ± 6.1 | −21.8 ± 5.9 | −16.7 ± 5.9 | −21.0
3 | 125 | 201 | 253 | 280 | – | – | – | – | – | Cc1nnc(-c2ccc(Oc3cc(OC4CCN(C(C)C)C4=O)cc(C(=O)Nc4nccs4)c3)cc2)o1 (stereo not shown) [Example 18, 3((1-Isopropyl-2-oxopyrrolidin-3-yl)oxy)-5-(4-(5-methyl-1,3,4-oxadiazol-2-yl)phenoxy)-N-(thiazol-2-yl)benzamide] | – | – | – | – | –
4 | 187 | 304 | 366 | 382 | – | – | – | – | – | CN1CCC(Oc2cc(Oc3ccc(-c4nnc(C5CC5)o4)cc3)cc(C(=O)Nc3nccs3)c2)C1=O (stereo not shown) [Example 32, 3-(4-(5-Cyclopropyl-1,3,4-oxadiazol-2-yl)phenoxy)-5-((1-methyl-2-oxopyrrolidin-3-yl)oxy)-N-(thiazol-2-yl)benzamide] | – | – | – | – | –
5 | 126 | 249 | 370 | 386 | – | – | – | – | – | Cc1csc(NC(=O)c2cc(Oc3ccc(-c4nnc(CC(C)C)o4)cc3)cc(OC3CCN(C)C3=O)c2)n1 (stereo not shown) [Example 30, 3-(4-(5-Isobutyl-1,3,4-oxadiazol-2-yl)phenoxy)-5-((1-methyl-2-oxopyrrolidin-3-yl)oxy)-N-(4-methylthiazol-2-yl)benzamide] | – | – | – | – | –
6 | 133 | 177 | 254 | 225 | – | – | – | – | – | Cc1nnc(-c2ccc(Oc3cc(OC4CCN(C5CCCCC5)C4=O)cc(C(=O)Nc4nccs4)c3)cc2)o1 (stereo not shown) [Example 36, 3((1-Cyclohexyl-2-oxopyrrolidin-3-yl)oxy)-5-(4-(5-methyl-1,3,4-oxadiazol-2-yl)phenoxy)-N-(thiazol-2-yl)benzamide] | – | – | – | – | –
7 | 114 | 208 | 305 | 282 | – | – | – | – | – | Cc1csc(NC(=O)c2cc(Oc3ccc(-c4nnc(C)o4)cc3)cc(OC3CCN(C4CC4)C3=O)c2)n1 (stereo not shown) [Example 19, 3((1-Cyclopropyl-2-oxopyrrolidin-3-yl)oxy)-5-(4-(5-methyl-1,3,4-oxadiazol-2-yl)phenoxy)-N-(4-methylthiazol-2-yl)benzamide] | – | – | – | – | –
8 | 101 | 109 | 130 | 148 | – | – | – | – | – | Cc1nnc(-c2ccc(Oc3cc(OC4CCN(C)C4=O)cc(C(=O)n4c(N)nc5ccccc54)c3)cc2)o1 (stereo not shown) [Example 11, 3-(3-(2-Amino-1H-benzo[d]imidazole-1-carbonyl)-5-(4-(5-methyl-1,3,4-oxadiazol-2-yl)phenoxy)phenoxy)-1-methylpyrrolidin-2-one] | – | – | – | – | –
9 | 125 | 149 | 203 | 208 | – | – | – | – | – | CCOC(=O)c1cnc(NC(=O)c2cc(Oc3ccc(-c4nnc(C)o4)cc3)cc(OC3CCN(C)C3=O)c2)s1 (stereo not shown) [Example 25, Ethyl 2-(3-(4-(5-methyl-1,3,4-oxadiazol-2-yl)phenoxy)-5-((1-methyl-2-oxopyrrolidin-3-yl)oxy)benzamido)thiazole-5-carboxylate] | – | – | – | – | –
10 | 168 | 250 | 287 | 282 | – | – | – | – | – | Cc1nc(-c2ccc(Oc3cc(OC4CCN(C)C4=O)cc(C(=O)Nc4ncc(C)s4)c3)cc2)no1 (stereo not shown) [Example 23, 3-(4-(5-Methyl-1,2,4-oxadiazol-3-yl)phenoxy)-5-((1-methyl-2-oxopyrrolidin-3-yl)oxy)-N-(5-methylthiazol-2-yl)benzamide] | – | – | – | – | –

The next lines start with the molecule.

Row | SMILES | activity at 0.1 µM (glucokinase (GK) enzyme; 0.1 uM compound) [%] | activity at 1 µM (glucokinase (GK) enzyme; 1 uM compound) [%] | activity at 5 µM (glucokinase (GK) enzyme; 5 uM compound) [%] | activity at 10 µM (glucokinase (GK) enzyme; 10 uM compound) [%] | EC50 (glucokinase (GK) enzyme) [nM] | % of GK activity wrt DMSO (glucokinase (GK) enzyme; 0.1 uM compound) [%] | % of GK activity wrt DMSO (glucokinase (GK) enzyme; 1 uM compound) [%] | % of GK activity wrt DMSO (glucokinase (GK) enzyme; 5 uM compound) [%] | % of GK activity wrt DMSO (glucokinase (GK) enzyme; 10 uM compound) [%] | % change in glucose levels Vs Control (Male C57 mice; 0 min Vs −30 min) [%] | % change in glucose levels Vs Control (Male C57 mice; 30 min Vs −30 min) [%] | % change in glucose levels Vs Control (Male C57 mice; 60 min Vs −30 min) [%] | % change in glucose levels Vs Control (Male C57 mice; 120 min Vs −30 min) [%] | % change in glucose levels Vs Control, Mean (Male C57 mice) [%]
11 | CCOC(=O)Cc1csc(NC(=O)c2cc(Oc3ccc(-c4nnc(C)o4)cc3)cc(OC3CCN(C)C3=O)c2)n1 (stereo not shown) [Example 3] | 186 | 284 | 312 | 316 | 196 | – | – | – | – | −18.8 ± 5.8 | −4.1 ± 6.0 | −3.9 ± 4.3 | −15.8 ± 3.7 | −10.6
12 | Cc1nnc(-c2ccc(Oc3cc(O[C@H]4CCN(C)C4=O)cc(C(=O)Nc4ncc(C#N)s4)c3)cc2)o1 [Example 69, (S)-(5-cyanothiazol-2-yl)-3-(4-(5-methyl-1,3,4-oxadiazol-2-yl)phenoxy)-5-((1-methyl-2-oxopyrrolidin-3-yl)oxy)benzamide] | – | – | – | – | – | 116.7 | 170.1 | 249.2 | 255.3 | −58.6 ± 5.6 | −91.2 ± 1.3 | −84.4 ± 0.9 | −72.9 ± 5.6 | −75.2
13 | CC(C)Cc1nnc(-c2ccc(Oc3cc(OC4CCN(C)C4=O)cc(C(=O)Nc4nccs4)c3)cc2)o1 (stereo not shown) [Example 28, 3-(4-(5-Isobutyl-1,3,4-oxadiazol-2-yl)phenoxy)-5-((1-methyl-2-oxopyrrolidin-3-yl)oxy)-N-(thiazol-2-yl)benzamide] | 131 | 248 | 336 | 338 | – | – | – | – | – | – | – | – | – | –
14 | Cc1nnc(-c2ccc(Oc3cc(OC4CCN(C)C4=O)cc(C(=O)Nc4nc(CCN5CCOCC5=O)cs4)c3)cc2)o1 (stereo not shown) [Example 5, 3-(4-(5-Methyl-1,3,4-oxadiazol-2-yl)phenoxy)-5-((1-methyl-2-oxopyrrolidin-3-yl)oxy)-N-(4-(2-(3-oxomorpholino)ethyl)thiazol-2-yl)benzamide] | 114 | 159 | 287 | 329 | – | – | – | – | – | – | – | – | – | –
15 | CCc1nnc(-c2ccc(Oc3cc(OC4CCN(C)C4=O)cc(C(=O)Nc4nc(C)cs4)c3)cc2)o1 (stereo not shown) [Example 27, 3-(4-(5-Ethyl-1,3,4-oxadiazol-2-yl)phenoxy)-5-((1-methyl-2-oxopyrrolidin-3-yl)oxy)-N-(4-methylthiazol-2-yl)benzamide] | 177 | 262 | 355 | 365 | – | – | – | – | – | – | – | – | – | –
16 | Cc1nnc(-c2ccc(Oc3cc(OC4CCN(C)C4=O)cc(C(=O)Nc4ncc(C(=O)O)s4)c3)cc2)o1 (stereo not shown) [Example 15, 2-(3-(4-(5-Methyl-1,3,4-oxadiazol-2-yl)phenoxy)-5-((1-methyl-2-oxopyrrolidin-3-yl)oxy)benzamido)thiazole-5-carboxylic acid] | 95.5 | 126 | 206 | 237 | – | – | – | – | – | – | – | – | – | –
17 | Cc1nnc(-c2ccc(Oc3cc(OC4CCN(C)C4=O)cc(C(=O)NC4=NCCS4)c3)cc2)o1 (stereo not shown) [Example 6, N-(4,5-Dihydrothiazol-2-yl)-3-(4-(5-methyl-1,3,4-oxadiazol-2-yl)phenoxy)-5-((1-methyl-2-oxopyrrolidin-3-yl)oxy)benzamide] | 100 | 115 | 190 | 275 | – | – | – | – | – | – | – | – | – | –
